US20250074911A1, “MACROCYCLIC BTK INHIBITORS” (Crossfire Oncology Holding B.V., priority 2021, published 2025)
Read-outs that look alike come from different tables or passages of the source.

Tests used:
[1] = target: full-length BTK C481S enzyme (Homo sapiens (Human), UniProt Q06187, C481S); test: Biochemical kinase assay BTK C481S (IMAP)
Summary of the method: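 Full-length BTK C481S (1.2 nM) was pre-incubated with compound for 1 h at room temperature in the dark, then reacted with fluorescein-labelled MBP-derived peptide (50 nM) and ATP (7 μM) for 2 h. Reactions were quenched with IMAP binding solution, and IC50 values were derived from fluorescence polarization.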

[2] = target: full-length wt-BTK enzyme (Homo sapiens (Human), UniProt Q06187); test: Biochemical kinase assay wt-BTK (IMAP)
Summary of the method: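 IMAP fluorescence polarization assay: 1.2 nM enzyme pre-incubated 1 h with compound at room temperature, then 50 nM fluorescein-labeled MBP-derived peptide and 4 μM ATP added. Reaction ran 2 h at room temperature in the dark before quenching with IMAP binding solution.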

REC-1 T474I cell lines = test: Cell proliferation assay REC-1 BTK T474I knock-in cells (ATPlite, 72 hours); type: cell-based; details: Homo sapiens, read-out: IC50 REC-1 T474I
Summary of the method: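 REC-1 cells carrying CRISPR knock-in mutant BTK, single-cell cloned and sequence-confirmed, were exposed to compound for 72 h and read by ATPlite luminescence. Percentage growth was calculated against the signal at the start of incubation and against untreated 0.3% DMSO wells as maximum growth.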

[3] = system: wt-TMD8 diffuse large B-cell lymphoma cells; test: Cell proliferation assay wt-TMD8 (ATPlite, 120 hours); type: cell-based; details: B-cell, read-out: IC50 wt-TMD8
Protocol: Cell proliferation assay wt-TMD8 diffuse large B-cell lymphoma cells were purchased from Tokyo Medical and Dental University and cultured in RPMI-1640 cell culture medium (cat. no. 61870036, Life Technologies), supplemented with 10% (v/v) heat-inactivated fetal bovine calf serum and 1% penicillin/[…]. 1600 cells per well (in 45 μl) were seeded in a white 384-well culture plate (cat. no. 781080, Greiner Bio-One) and allowed to rest for at least 5 hours at 37° C., 95% humidity, and 5% CO2. 5 μl compound solution was added to the cells and incubation was continued for 120 hours (5 days), followed by addition of 24 μl ATPlite 1Step™ (PerkinElmer, Groningen, The Netherlands) solution was added to each well. Luminescence was recorded on an Envision multimode reader. The cell signal at the start of incubation was recorded separately in order to distinguish between cell population growth and cell death. In addition, maximum growth was determined by incubation of a duplicate without compound in the presence of 0.3% DMSO. Percentage growth was used as the main y-axis signal.

[4] = system: wt-REC-1 mantle cell lymphoma cells; test: Cell proliferation assay wt-REC-1 (ATPlite, 72 hours); type: cell-based
Summary of the method: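 Luminescent viability read over 72 h, start-of-incubation signal recorded separately to separate growth from cell death. Percentage growth referenced to compound-free 0.3% DMSO wells; IC50 from 4-parameter logistic fit.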

[5] = wt-TMD8 cells, 120 hours, ATPlite

Sequence of full-length wt-BTK enzyme (Q06187 whole entry): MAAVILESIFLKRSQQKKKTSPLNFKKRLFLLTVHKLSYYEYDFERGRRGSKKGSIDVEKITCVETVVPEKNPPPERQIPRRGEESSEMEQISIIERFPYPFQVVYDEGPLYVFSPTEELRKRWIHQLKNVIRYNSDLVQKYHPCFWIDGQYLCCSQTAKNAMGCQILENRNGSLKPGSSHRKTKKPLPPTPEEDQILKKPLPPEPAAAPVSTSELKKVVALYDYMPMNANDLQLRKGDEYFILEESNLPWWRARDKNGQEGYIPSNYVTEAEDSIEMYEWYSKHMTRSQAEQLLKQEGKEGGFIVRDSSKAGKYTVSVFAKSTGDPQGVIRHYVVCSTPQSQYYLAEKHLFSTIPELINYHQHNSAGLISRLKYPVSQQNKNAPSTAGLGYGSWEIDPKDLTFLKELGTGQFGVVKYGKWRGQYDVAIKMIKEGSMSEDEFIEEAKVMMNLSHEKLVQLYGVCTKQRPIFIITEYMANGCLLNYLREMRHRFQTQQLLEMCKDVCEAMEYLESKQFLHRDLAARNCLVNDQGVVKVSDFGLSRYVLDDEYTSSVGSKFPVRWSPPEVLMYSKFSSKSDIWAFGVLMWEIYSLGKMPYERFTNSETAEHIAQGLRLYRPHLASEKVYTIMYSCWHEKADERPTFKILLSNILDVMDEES
Sequence of full-length BTK C481S enzyme (Q06187 whole entry C481S): as the sequence (Q06187 whole entry) above, with C481S counted along it

SMILES | IC50 [1] [nM] | IC50 [2] [nM] | IC50 (REC-1 T474I cell lines; Rec1, 72 hours) [nM] | IC50 [3, 5] [nM] | IC50 ([4]; 72 h; read-out: IC50 wt-REC-1) [nM] | IC50 (REC-1 T474I cell lines; Rec1, 72 h) [nM] | IC50 ([3]; 120 h) [nM] | IC50 ([4]; 72 h, read-out: IC50 wt-REC-1) [nM]
C[C@@H]1CCn2nc(-c3ccc(C(=O)Nc4cc(C(F)(F)F)ccn4)cc3)c3c(N)ncc(c32)/C=C/C[C@H](C)OCCC(=O)N1 [Example 73] | < 5 | < 5 | 100 to 500 | < 100 | < 100 |  |  | 
C[C@@H]1CCn2nc(-c3ccc(C(=O)Nc4cc(C(F)(F)F)ccn4)cc3)c3c(N)ncc(c32)/C=C/CCN2CC[C@@H]2C(=O)N1 [Example 74] | < 5 | < 5 | 500 to 10000 | < 100 | 100 to 1000 |  |  | 
CC1CCn2nc(-c3ccc(C(=O)Nc4cc(C(F)(F)F)ccn4)cc3)c3c(N)ncc(c32)/C=C/C(O)CCCCC(=O)N1 (stereo not drawn) [Example 75] | < 5 | < 5 | 500 to 10000 | < 100 | 100 to 1000 |  |  | 
Nc1ncc2c3c1c(-c1ccc(C(=O)Nc4cc(C(F)(F)F)ccn4)cc1)nn3[C@@H]1CCCN(C1)C(=O)CCCC/C=C/2 [Example 77] | 5 to 50 | 5 to 50 | 500 to 10000 | 100 to 1000 | 100 to 1000 |  |  | 
Nc1ncc2c3c1c(-c1ccc(C(=O)Nc4cc(C(F)(F)F)ccn4)cc1)nn3[C@@H]1CCCN(C1)C(=O)CCCCC/C=C/2 [Example 78] | < 5 | < 5 | 500 to 10000 | < 100 | 100 to 1000 |  |  | 
Nc1ncc2c3c1c(-c1ccc(C(=O)Nc4cc(C(F)(F)F)ccn4)cc1)nn3[C@@H]1CCCN(C1)C(=O)CCCCCCC/C=C/2 [Example 80] | < 5 | < 5 | < 100 | < 100 | < 100 |  |  | 
Nc1ncc2c3c1c(-c1ccc(C(=O)Nc4cc(C(F)(F)F)ccn4)cc1)nn3[C@@H]1CCCN(C1)C(=O)CCCCCCCC/C=C/2 [Example 81] | < 5 | < 5 | 100 to 500 | < 100 | < 100 |  |  | 
CN1C/C=C/c2cnc(N)c3c(-c4ccc(C(=O)Nc5cc(C(F)(F)F)ccn5)cc4)nn(c23)[C@@H]2CCCN(C2)C(=O)CCCC1 [Example 82] | < 5 | < 5 | 500 to 10000 | < 100 | 100 to 1000 |  |  | 
Nc1ncc2c3c1c(-c1ccc(C(=O)Nc4cc(C(F)(F)F)ccn4)cc1)nn3[C@@H]1CCC[C@H](C1)C(=O)NCC/C=C\C2 [Example 86] | 50 to 500 | 5 to 50 | 500 to 10000 | 100 to 1000 | 100 to 1000 |  |  | 
Nc1ncc2c3c1c(-c1ccc(C(=O)Nc4cc(C(F)(F)F)ccn4)cc1)nn3[C@@H]1CCC[C@H](C1)NC(=O)COC/C=C\C2 [Example 97b] | < 5 | 5 to 50 | 500 to 10000 | < 100 | 100 to 1000 |  |  | 
Nc1ncc2c3c1c(-c1ccc(C(=O)Nc4ccccn4)cc1)nn3[C@@H]1CCC[C@H](C1)NC(=O)CCC/C=C\C2 [Example 99b] | 5 to 50 | 5 to 50 | 500 to 10000 | < 100 | 100 to 1000 |  |  | 
Nc1ncc2c3c1c(-c1ccc(C(=O)Nc4cc(C(F)(F)F)ccn4)cc1)nn3[C@@H]1CCC[C@H](C1)NC(=O)CCCCC/C=C\C2 [Example 101b] | < 5 | < 5 | 500 to 10000 | < 100 | 100 to 1000 |  |  | 
Nc1ncc2c3c1c(-c1ccc(C(=O)Nc4ccccn4)cc1)nn3[C@@H]1CCC[C@H](C1)NC(=O)CCCCC/C=C\C2 [Example 102b] | < 5 | 5 to 50 | 500 to 10000 | < 100 | 100 to 1000 |  |  | 
Nc1ncc2c3c1c(-c1ccc(C(=O)Nc4cc(C(F)(F)F)ccn4)cc1)nn3[C@@H]1CCC[C@H](C1)NC(=O)CCCCCC/C=C\C2 [Example 103b] | < 5 | < 5 | 100 to 500 | < 100 | 100 to 1000 |  |  | 
Nc1ncc2c3c1c(-c1ccc(C(=O)Nc4ccccn4)cc1)nn3[C@@H]1CCC[C@H](C1)NC(=O)COC/C=C\C2 [Example 104b] | 5 to 50 | 50 to 500 | 500 to 10000 | 100 to 1000 | 100 to 1000 |  |  | 
Nc1ncc2c3c1c(-c1ccc(C(=O)Nc4cc(C(F)(F)F)ccn4)cc1)nn3[C@@H]1CCC[C@H](C1)NC(=O)CNC/C=C\C2 [Example 105] | 5 to 50 | 5 to 50 | 500 to 10000 | 100 to 1000 | 1000 to 10000 |  |  | 
Nc1ncc2c3c1c(-c1ccc(C(=O)Nc4ccccn4)cc1)nn3[C@@H]1CCC[C@H](C1)C(=O)NCCCCCCC2 [Example 118] | < 5 | < 5 | 500 to 10000 | < 100 | < 100 |  |  | 
Nc1ncc2c3c1c(-c1ccc(C(=O)Nc4cc(C(F)(F)F)ccn4)cc1)nn3[C@@H]1CCC[C@H](C1)C(=O)NCCCCCCCC2 [Example 119] | < 5 | < 5 | 500 to 10000 | < 100 | < 100 |  |  | 
Nc1ncc2c3c1c(-c1ccc(C(=O)Nc4ccccn4)cc1)nn3[C@@H]1CCC[C@H](C1)C(=O)NCCCCCCCCC2 [Example 123] | < 5 | < 5 | 500 to 10000 | < 100 | 100 to 1000 |  |  | 
[2H]C1CCCCNC(=O)[C@@H]2CCC[C@H](C2)n2nc(-c3ccc(C(=O)Nc4cc(C(F)(F)F)ccn4)cc3)c3c(N)ncc(c32)C1[2H] (stereo partly drawn) [Example 128] | < 5 | < 5 | 100 to 500 | < 100 | 100 to 1000 |  |  | 
CN1C/C=C/c2cnc(N)c3c(-c4ccc(C(=O)Nc5cc(C(F)(F)F)ccn5)cc4)nc(n23)[C@@H]2CCCN(C2)C(=O)CCCC1 [Example 129] | < 5 | < 5 |  |  |  | 500 to 10000 | < 100 | 100 to 1000
[2H]C1([2H])/C=C/c2cnc(N)c3c(-c4ccc(C(=O)Nc5cc(C(F)(F)F)ccn5)cc4)nn(c23)[C@@H]2CCC[C@H](C2)NC(=O)CCCC1 [Example 137] | < 5 | < 5 | < 100 | < 100 | < 100 |  |  | 
Nc1ncc2c3c1c(-c1ccc(C(=O)Nc4cc(C(F)(F)F)ccn4)cc1)nn3[C@@H]1CCC[C@H](C1)NC(=O)CCCC(F)(F)/C=C/2 [Example 138] | 5 to 50 | 5 to 50 | 500 to 10000 | < 100 | < 100 |  |  | 
CN1CCCCc2cnc(N)c3c(-c4ccc(C(=O)Nc5cc(C(F)(F)F)ccn5)cc4)nn(c23)[C@@H]2CCC[C@H](C2)C(=O)NCC1 [Example 140] | < 5 | < 5 | 500 to 10000 | < 100 | 1000 to 10000 |  |  | 
C[C@@H]1CCn2nc(-c3ccc(C(=O)Nc4cc(C(F)(F)F)ccn4)cc3)c3c(N)ncc(c32)/C=C/CN2CCN[C@H](C2)C(=O)N1 [Example 142] | < 5 | < 5 | 500 to 10000 | < 100 | 100 to 1000 |  |  | 
CC1NC/C=C/c2cnc(N)c3c(-c4ccc(C(=O)Nc5cc(C(F)(F)F)ccn5)cc4)nn(c23)[C@@H]2CCC[C@H](C2)NC1=O (stereo partly drawn) [Example 145] | < 5 | < 5 | 500 to 10000 | < 100 | 1000 to 10000 |  |  | 
C[C@@H]1CCn2nc(-c3ccc(C(=O)Nc4cc(C(F)(F)F)ccn4)cc3)c3c(N)ncc(c32)/C=C/CN2CC[C@H](C2)C(=O)N1 [Example 148] | < 5 | < 5 | 500 to 10000 | < 100 | 100 to 1000 |  |  | 
C[C@@H]1CNC(=O)[C@@H]2CCC[C@H](C2)n2nc(-c3ccc(C(=O)Nc4cc(C(F)(F)F)ccn4)cc3)c3c(N)ncc(c32)/C=C/CO1 [Example 149] | < 5 | < 5 | < 100 | < 100 | 100 to 1000 |  |  | 
C[C@@H]1CNC(=O)[C@@H]2CCC[C@H](C2)n2nc(-c3ccc(C(=O)Nc4cc(C(F)(F)F)ccn4)cc3)c3c(N)ncc(c32)/C=C/CN1C [Example 154] | < 5 | < 5 | 500 to 10000 | < 100 | 1000 to 10000 |  |  | 
C[C@@H]1CCn2nc(-c3ccc(C(=O)Nc4cc(C(F)(F)F)ccn4)cc3)c3c(N)ncc(c32)/C=C/CCO[C@@H](C)CC(=O)N1 [Example 158] | < 5 | < 5 | 500 to 10000 | < 100 | 100 to 1000 |  |  | 
